{
  "source": "patent US20160136093A9",
  "about": "“ENGINEERED AEROSOL PARTICLES, AND ASSOCIATED METHODS” (priority 2009, published 2016)",
  "origin": "cited, not measured here",
  "system": "non-replicating TB",
  "conditions": "after one month, in vitro",
  "data": [
    {"substance": "Capreomycin", "values": [
      {"measurement": "decrease in colony forming units (CFU)", "result": "one to two"}
    ]}
  ]
}
